system: SMARTCAR-MTH1-wt-HiBiT (Jurkat.7 cells); assay: HiBit Lytic Assay (HiBit DC50, MTH1 degraders of Table 2); assay type: cell-based, human; conditions: Jurkat.7 SMARTCAR-MTH1-wt-HiBiT cells, compound treatment time 4 hr, 11-point half log dose response
Experimental: Example 3. HiBit Lytic Assay
• Compound is made at 10 mM, half log dilution, 11 points. • MDR plates can also be ordered from Frontier with same format. • 1. Barcode a 384LDV plate (384-well Low Dead Volume Microplate, Labcyte LP-0200) (Echo compatible) on the left side. • 2. Transfer 13.6 μL of 10 mM compound into column 1 of LDV plate (Labcyte). • 3. Fill column 2-11 and column 23 of MDR plate with 9.30 μL of DMSO. • 4. Serial dilute 3.16 fold from column 1 to 2 by transferring 4.30 μL from column 1 to column 2, and so on to column 11. *Change tip in every dilution to prevent compound carryover effect! • 5. Seal the plate with Plate Sealer, then store the MDR plate at room temperature for short term storage and in −20° C. for long term storage.
• Cells are treated with 30 nL of each compound at 10 mM, half log dilution, 11 points with final concentration of 1000 nM or 833 nM, half log dilution, 11 points, in duplicates. Final DMSO concentration is 0.1%. • 1. Barcode the plates made on the left side and label the plates with silver marker. • 2. Dispense with the following scheme: • a. 30 nL of compound into corresponding wells in cell plates via Echo550 with “MDR32_HiBiT16_30 nL”. Top concentration will be 1000 nM. • 3. Seal the plate with Plate Sealer.
• Cells are dispensed at density specified in Cell Line Table in 384-well microplate. • 1. Culture cells to between 50-80% of confluence in sterile culture flasks of appropriate size. • 2. For Adherent Cell Lines: • a. Aspirate off growth media in culture flask, and wash off the Phenol Red media with 5 mL of 1×PBS. • b. Add 5 mL of Trypsin to the cells, incubate at 37° C. for 5 minutes. • c. Add 5 mL of growth media to the trypsinzed cells, and resuspend. • 3. Remove 10 μL of cells, and resuspend the cells with 10 μL of Trypan Blue. Insert the solution to counting chamber slide, and count the cells via cell counter. • 4. Adjust the cell concentration to specified plating density, and strain the cells with cell strainer. • 5. Dispense the cells via E1-ClipTip™ Electronic Multichannel Pipettes or Multidrop™ Combi Reagent Dispenser with Standard tube dispensing cassette: • a. Prime the cassette with 10-20 mL of ddH2O. • b. Prime the cassette with 10-20 mL of cells. • c. Dispense the cells at low speed for 30 μL/well in Corning® 384 Well Low Flange Black Flat Bottom Polystyrene TC-Treated Microplate. • d. Wash the cassette with 10-20 mL of ddH2O, follow by 10-20 mL of 70% EtOH, then again with 10-20 mL of ddH2O. • 6. Incubate the plates at 37° C.×compound treatment time.
• 1. If not already, bring Nano-Glo® HiBiT Lytic Buffer to room temperature. • 2. Determine the amount of reagent needed. A volume of reagent equal to the volume of media in the well should be added (i.e. 30 μL of cells will need 30 μL of HiBiT Lytic reagent). • 3. Into a given volume of buffer, dilute the substrate 50-fold and the LgBiT protein 100-fold. For example, to make 10 ml of reagent, add the following: • 10 ml Nano-Glo® HiBiT Lytic Buffer • 200 μl Nano-Glo® HiBiT Lytic Substrate • 100 μl LgBiT Protein • The reagent should be reconstituted immediately before use. However, once reconstituted, it should take about 4 hours for the activity to decrease 10%. • 4. Cool down the cell plate to room temperature for 10-15 minutes without lid. • 5. Dispense the HiBiT Lytic Reagent via E1-ClipTip™ Electronic Multichannel Pipettes or Multidrop™ Combi Reagent Dispenser with Standard tube dispensing cassette: • a. Prime the cassette with 10-20 mL of ddH2O. • b. Prime the cassette with 10-20 mL of CTG 2.0. • c. Dispense the HiBiT Lytic Reagent at medium speed for 30 μL/well in cell plate to column 1-23 (column 24 will be used as plate background). • d. Wash the cassette with 10-20 mL of ddH2O, follow by 10-20 mL of 70% EtOH, then again with 10-20 mL of ddH2O. • 6. Incubate the cell plate at room temperature for 10 minutes without lid. • 7. […]

Structure (SMILES)	DC50 [nM]
CNC(=O)c1cnc2ccc(C(=O)NCCCCCCCCCCCCNC(=O)COc3cccc4c3C(=O)N(C3CCC(=O)NC3=O)C4=O)cc2c1Nc1ccccc1 (stereo not shown) [Compound 455, N6-(12-(2-((2-(2,6-dioxopiperidin-3-yl)-1,3-dioxoisoindolin-4-yl)oxy)acetamido)dodecyl)-N3-methyl-4-(phenylamino)quinoline-3,6-dicarboxamide]	< 100
CCNC(=O)c1cnc2ccc(NCCCCCCCCCCNC(=O)COc3cccc4c3C(=O)N(C3CCC(=O)NC3=O)C4=O)cc2c1Nc1ccccc1 (stereo not shown) [Compound 452, 6-((10-(2-((2-(2,6-dioxopiperidin-3-yl)-1,3-dioxoisoindolin-4-yl)oxy)acetamido)decyl)amino)-N-ethyl-4-(phenylamino)quinoline-3-carboxamide]	< 100
COc1cc2ncc(C(=O)NC3CC3)c(N)c2cc1-c1ccc(C(=O)NCCCCn2cc(CNc3cccc4c3C(=O)N(C3CCC(=O)NC3=O)C4=O)nn2)nc1 (stereo not shown) [Compound 398, 4-amino-N-cyclopropyl-6-[6-[4-[4-[[[2-(2,6-dioxo-3-piperidyl)-1,3-dioxo-isoindolin-4-yl]amino]methyl]triazol-1-yl]butylcarbamoyl]-3-pyridyl]-7-methoxy-quinoline-3-carboxamide]	< 100
CNC(=O)c1cnc2ccc(C(=O)NCCCCCCCCCNC(=O)COc3cccc4c3C(=O)N(C3CCC(=O)NC3=O)C4=O)cc2c1Nc1ccccc1 (stereo not shown) [Compound 446, N6-(9-(2-((2-(2,6-dioxopiperidin-3-yl)-1,3-dioxoisoindolin-4-yl)oxy)acetamido)nonyl)-N3-methyl-4-(phenylamino)quinoline-3,6-dicarboxamide]	< 100
CNC(=O)c1cnc2ccc(NCCCCCCCCCCNC(=O)COc3cccc4c3C(=O)N(C3CCC(=O)NC3=O)C4=O)cc2c1Nc1ccccc1 (stereo not shown) [Compound 449, 6-((10-(2-((2-(2,6-dioxopiperidin-3-yl)-1,3-dioxoisoindolin-4-yl)oxy)acetamido)decyl)amino)-N-methyl-4-(phenylamino)quinoline-3-carboxamide]	< 100
CNC(=O)c1cnc2cc(OC)c(-c3ccc(C(=O)NCCCCNC(=O)CN(C)c4cccc5c4C(=O)N(C4CCC(=O)NC4=O)C5=O)cc3)cc2c1Nc1ccccc1 (stereo not shown) [Compound 345, 6-(4-((4-(2-((2-(2,6-dioxopiperidin-3-yl)-1,3-dioxoisoindolin-4-yl)(methyl)amino)acetamido)butyl)carbamoyl)phenyl)-7-methoxy-N-methyl-4-(phenylamino)quinoline-3-carboxamide]	< 100
CNC(=O)c1cnc2ccc(-c3ccc(C(=O)NCCCCNC(=O)COc4cccc5c4C(=O)N(C4CCC(=O)NC4=O)C5=O)c(F)c3)cc2c1Nc1ccccc1 (stereo not shown) [Compound 351, 4-anilino-6-[4-[4-[[2-[2-(2,6-dioxo-3-piperidyl)-1,3-dioxo-isoindolin-4-yl]oxyacetyl]amino]butylcarbamoyl]-3-fluoro-phenyl]-N-methyl-quinoline-3-carboxamide]	< 100
O=C1CCC(N2C(=O)c3cccc(OCc4cn(CCCCNC(=O)c5ccc(-c6cc7c(Nc8ccccc8)c(C(=O)NC8CC8)cnc7cc6F)cc5F)nn4)c3C2=O)C(=O)N1 (stereo not shown) [Compound 413, 4-anilino-N-cyclopropyl-6-[4-[4-[4-[[2-(2,6-dioxo-3-piperidyl)-1,3-dioxo-isoindolin-4-yl]oxymethyl]triazol-1-yl]butylcarbamoyl]-3-fluoro-phenyl]-7-fluoro-quinoline-3-carboxamide]	< 100
CNc1c(C(=O)NC2CC2)cnc2cc(F)c(-c3ccc(C(=O)NCCCCn4cc(C(C)(C)Nc5cccc6c5C(=O)N(C5CCC(=O)NC5=O)C6=O)nn4)c(F)c3)cc12 (stereo not shown) [Compound 436, N-cyclopropyl-6-(4-((4-(4-(2-((2-(2,6-dioxopiperidin-3-yl)-1,3-dioxoisoindolin-4-yl)amino)propan-2-yl)-1H-1,2,3-triazol-1-yl)butyl)carbamoyl)-3-fluorophenyl)-7-fluoro-4-(methylamino)quinoline-3-carboxamide]	< 100
CNC(=O)c1cnc2ccc(C(=O)NCCCCCCCCCCNC(=O)COc3cccc4c3C(=O)N(C3CCC(=O)NC3=O)C4=O)cc2c1Nc1ccccc1 (stereo not shown) [Compound 450, N6-(10-(2-((2-(2,6-dioxopiperidin-3-yl)-1,3-dioxoisoindolin-4-yl)oxy)acetamido)decyl)-N3-methyl-4-(phenylamino)quinoline-3,6-dicarboxamide]	< 100
CN(CC(=O)NCCCCNC(=O)c1ccc(-c2ccc3ncc(C(N)=O)c(Nc4ccccc4)c3c2)cc1)c1cccc2c1C(=O)N(C1CCC(=O)NC1=O)C2=O (stereo not shown) [Compound 301, 4-anilino-6-[4-[4-[[2-[[2-(2,6-dioxo-3-piperidyl)-1,3-dioxo-isoindolin-4-yl]-methyl-amino]acetyl]amino]butylcarbamoyl]phenyl]quinoline-3-carboxamide]	< 100

Further lines, results first:

DC50 [nM]	Structure (SMILES)
< 100	CNc1c(C(=O)NC2CC2)cnc2cc(F)c(-c3ccc(C(=O)NCCCCn4cc(COc5cccc6c5C(=O)N(C5CCC(=O)NC5=O)C6=O)nn4)c(F)c3)cc12 (stereo not shown) [Compound 412, N-cyclopropyl-6-[4-[4-[4-[[2-(2,6-dioxo-3-piperidyl)-1,3-dioxo-isoindolin-4-yl]oxymethyl]triazol-1-yl]butylcarbamoyl]-3-fluoro-phenyl]-7-fluoro-4-(methylamino)quinoline-3-carboxamide]
< 100	CNc1c(C(=O)NC2CC2)cnc2cc(F)c(-c3ccc(C(=O)NCCCCn4cc(CNc5cccc6c5C(=O)N(C5CCC(=O)NC5=O)C6=O)nn4)c(F)c3)cc12 (stereo not shown) [Compound 411, N-cyclopropyl-6-[4-[4-[4-[[[2-(2,6-dioxo-3-piperidyl)-1,3-dioxo-isoindolin-4-yl]amino]methyl]triazol-1-yl]butylcarbamoyl]-3-fluoro-phenyl]-7-fluoro-4-(methylamino)quinoline-3-carboxamide]
< 100	CNc1c(C(=O)NC2CC2)cnc2cc(C(F)(F)F)c(-c3ccc(C(=O)NCCCCCCCCc4ccc5c(n4)CN(C4CCC(=O)NC4=O)C5=O)c(F)c3)cc12 (stereo not shown) [Compound 409, N-cyclopropyl-6-[4-[8-[6-(2,6-dioxo-3-piperidyl)-5-oxo-7H-pyrrolo[3,4-b]pyridin-2-yl]octylcarbamoyl]-3-fluoro-phenyl]-4-(methylamino)-7-(trifluoromethyl)quinoline-3-carboxamide]
< 100	O=C1CCC(N2C(=O)c3cccc(OCc4cn(CCCCNC(=O)c5ccc(-c6cc7c(Nc8ccccc8)c(C(=O)NC8CC8)cnc7cc6C(F)(F)F)cc5F)nn4)c3C2=O)C(=O)N1 (stereo not shown) [Compound 415, 4-anilino-N-cyclopropyl-6-[4-[4-[4-[[2-(2,6-dioxo-3-piperidyl)-1,3-dioxo-isoindolin-4-yl]oxymethyl]triazol-1-yl]butylcarbamoyl]-3-fluoro-phenyl]-7-(trifluoromethyl)quinoline-3-carboxamide]
< 100	CNc1c(C(=O)NC2CC2)cnc2cc(F)c(-c3ccc(C(=O)NCCCCCCCCc4ccc5c(n4)CN(C4CCC(=O)NC4=O)C5=O)c(F)c3)cc12 (stereo not shown) [Compound 408, N-cyclopropyl-6-[4-[8-[6-(2,6-dioxo-3-piperidyl)-5-oxo-7H-pyrrolo[3,4-b]pyridin-2-yl]octylcarbamoyl]-3-fluoro-phenyl]-7-fluoro-4-(methylamino)quinoline-3-carboxamide]
